Test results taken from PMC8455565 (Scientific Reports, 2021).

Columns and labels:
CD8+ Memory (CD3+CD28) = assay: High-dimensional phosphorylation analysis, CD8+ Memory (CD3+CD28); type: cell-based, human; details: 30 µM, 5'
Procedure: (§1) The analysis measured 94 intracellular signaling nodes (81 phosphorylation sites, 10 total protein levels and 3 methylation/acetylation sites) in stimulated immune cells, including B cells (IgM plus CD40L), CD4 + and CD8 + T cells (IL-2; CD3 plus CD28), monocytes (M-CSF), NK cells (IL-2), and granulocytes (LPS).

NK cells (LPS) = assay: High-dimensional phosphorylation analysis, NK cells (LPS); type: cell-based, human; details: 30 µM, 60'
B cells (IgM+CD40L) = assay: High-dimensional phosphorylation analysis, B cells (IgM+CD40L); type: cell-based, human
Procedure: as §1

B cells = assay: B cell inhibition in whole blood; type: cell-based
TXK = molecular target: T1, TXK (Homo sapiens, UniProt P42681); assay: Kinase biochemical assay (FRET), TXK; details: read-out: inhibitory activity on TXK
T1 sequence (P42681 1-527): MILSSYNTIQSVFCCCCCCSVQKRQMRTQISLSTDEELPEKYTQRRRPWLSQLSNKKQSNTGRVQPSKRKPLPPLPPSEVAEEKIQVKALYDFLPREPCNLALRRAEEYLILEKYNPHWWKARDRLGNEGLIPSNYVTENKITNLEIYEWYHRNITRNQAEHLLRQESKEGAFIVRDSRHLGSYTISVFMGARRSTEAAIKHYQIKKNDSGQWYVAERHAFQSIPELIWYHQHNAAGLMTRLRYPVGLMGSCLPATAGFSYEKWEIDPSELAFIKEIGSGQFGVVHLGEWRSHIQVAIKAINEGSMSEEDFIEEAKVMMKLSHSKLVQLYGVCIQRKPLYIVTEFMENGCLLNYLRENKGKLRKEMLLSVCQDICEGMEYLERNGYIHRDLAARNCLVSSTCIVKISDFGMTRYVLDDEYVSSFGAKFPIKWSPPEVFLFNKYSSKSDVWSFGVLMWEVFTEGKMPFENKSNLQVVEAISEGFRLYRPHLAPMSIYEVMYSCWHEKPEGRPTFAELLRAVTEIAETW

JAK3 = molecular target: T2, JAK3 (Homo sapiens, UniProt P52333); assay: Kinase selectivity biochemical assay, JAK3
T2 sequence (P52333 1-1124): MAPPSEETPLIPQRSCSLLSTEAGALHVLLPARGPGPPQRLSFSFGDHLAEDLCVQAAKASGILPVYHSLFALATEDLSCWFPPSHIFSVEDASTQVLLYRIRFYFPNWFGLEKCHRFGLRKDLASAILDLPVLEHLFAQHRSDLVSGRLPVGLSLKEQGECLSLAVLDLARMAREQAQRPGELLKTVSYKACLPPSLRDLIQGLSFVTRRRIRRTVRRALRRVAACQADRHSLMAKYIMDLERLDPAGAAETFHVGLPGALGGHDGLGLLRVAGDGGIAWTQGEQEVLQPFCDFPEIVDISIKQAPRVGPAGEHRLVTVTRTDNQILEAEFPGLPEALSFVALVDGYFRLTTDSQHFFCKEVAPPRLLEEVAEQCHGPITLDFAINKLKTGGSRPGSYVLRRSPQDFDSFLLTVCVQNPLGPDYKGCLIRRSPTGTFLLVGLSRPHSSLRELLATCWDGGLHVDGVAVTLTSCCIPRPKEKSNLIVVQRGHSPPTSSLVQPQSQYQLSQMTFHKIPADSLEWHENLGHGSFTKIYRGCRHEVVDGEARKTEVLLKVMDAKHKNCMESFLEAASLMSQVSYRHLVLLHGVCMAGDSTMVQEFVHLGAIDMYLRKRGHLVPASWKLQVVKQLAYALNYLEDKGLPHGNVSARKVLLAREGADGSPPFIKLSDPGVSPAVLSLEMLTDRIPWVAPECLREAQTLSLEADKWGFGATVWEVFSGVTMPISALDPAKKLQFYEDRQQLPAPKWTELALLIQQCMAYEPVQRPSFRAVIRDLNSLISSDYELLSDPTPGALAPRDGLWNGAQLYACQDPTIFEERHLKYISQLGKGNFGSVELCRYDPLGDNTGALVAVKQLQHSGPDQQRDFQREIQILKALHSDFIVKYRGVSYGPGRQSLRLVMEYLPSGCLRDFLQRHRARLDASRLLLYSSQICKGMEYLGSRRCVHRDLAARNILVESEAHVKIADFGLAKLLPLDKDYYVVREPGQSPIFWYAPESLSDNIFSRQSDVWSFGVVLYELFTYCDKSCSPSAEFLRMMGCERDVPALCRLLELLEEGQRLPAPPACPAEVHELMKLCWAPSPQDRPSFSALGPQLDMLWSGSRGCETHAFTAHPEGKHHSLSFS

[1] = 30 μM, all time points (2, 5, 15, 60 min)

SMILES: C=CC(=O)Nc1cccc(Oc2nc(Nc3ccc(N4CCN(C)CC4)cc3)nc3ccoc23)c1 [Poseltinib]
- BTK phosphorylation, Log2Ratio Stim/Control (CD8+ Memory (CD3+CD28)): 1.34
- CrL phosphorylation, Log2Ratio Stim/Control (CD8+ Memory (CD3+CD28)): 1.59
- HS1 phosphorylation, Log2Ratio Stim/Control (CD8+ Memory (CD3+CD28)): 0.56
- LCK phosphorylation, Log2Ratio Stim/Control (CD8+ Memory (CD3+CD28)): 1.52
- PLCγ2 phosphorylation, Log2Ratio Stim/Control (CD8+ Memory (CD3+CD28)): 2.55
- RPS6KA1 phosphorylation, Log2Ratio Stim/Control (CD8+ Memory (CD3+CD28)): 0.47
- SRC phosphorylation, Log2Ratio Stim/Control (CD8+ Memory (CD3+CD28)): 0.80
- WIPF1 phosphorylation, Log2Ratio Stim/Control (CD8+ Memory (CD3+CD28)): 0.82
- ZAP70 phosphorylation, Log2Ratio Stim/Control (CD8+ Memory (CD3+CD28)): 1.33
- AKT1 phosphorylation, Log2Ratio Stim/Control (NK cells (LPS)): 0.44
- Akt phosphorylation, Log2Ratio Stim/Control (NK cells (LPS)): 0.54
- BTK phosphorylation, Log2Ratio Stim/Control (NK cells (LPS)): -0.04
- GSK3B phosphorylation, Log2Ratio Stim/Control (NK cells (LPS)): 0.91
- MAP2K1 phosphorylation, Log2Ratio Stim/Control (NK cells (LPS)): 0.51
- MNK phosphorylation, Log2Ratio Stim/Control (NK cells (LPS)): 0.07
- P38 phosphorylation, Log2Ratio Stim/Control (NK cells (LPS)): 0.36
- RPS6 phosphorylation, Log2Ratio Stim/Control (NK cells (LPS)): 0.30
- SMAD2 phosphorylation, Log2Ratio Stim/Control (NK cells (LPS); first SMAD2 line): 0.67
- SMAD2 phosphorylation, Log2Ratio Stim/Control (NK cells (LPS); second SMAD2 line): 0.07
- Akt phosphorylation, Log2Ratio Stim/Control (B cells (IgM+CD40L); 30 µM, 5'): -0.97
- BTK phosphorylation, Log2Ratio Stim/Control (B cells (IgM+CD40L); 30 µM, 5'): 0.06
- CREB1 phosphorylation, Log2Ratio Stim/Control (B cells (IgM+CD40L); 30 µM, 5'): 1.74
- MAPK3 phosphorylation, Log2Ratio Stim/Control (B cells (IgM+CD40L); 30 µM, 5'): 1.30
- PLCγ2 phosphorylation, Log2Ratio Stim/Control (B cells (IgM+CD40L); 30 µM, 5'): 0.82
- RPS6KA1 phosphorylation, Log2Ratio Stim/Control (B cells (IgM+CD40L); 30 µM, 5'): 1.13
- RPS6 phosphorylation, Log2Ratio Stim/Control (B cells (IgM+CD40L); 30 µM, 5'): 1.35
- SAPK/JNK phosphorylation, Log2Ratio Stim/Control (B cells (IgM+CD40L); 30 µM, 5'): 0.82
- SLP76 phosphorylation, Log2Ratio Stim/Control (B cells (IgM+CD40L); 30 µM, 5'): 0.86
- WIPF1 phosphorylation, Log2Ratio Stim/Control (B cells (IgM+CD40L); 30 µM, 5'): 1.81
- phosphorylation of AKT (S473) (B cells (IgM+CD40L); [1]): inhibited
- phosphorylation of BTK (Y223) (B cells (IgM+CD40L); [1]): inhibited
- phosphorylation of PLCγ2 (Y759) (B cells (IgM+CD40L); [1]): inhibited
- IC50 (B cells): 420 nM
- IC50 (TXK): < 10 nM
- selectivity toward BTK over JAK3 (JAK3): 7.5 ×
